Experimental data as given in the supplement of paper PMC10307832.

What was measured:
Assay in all cases: relative viability (nuclei count vs DMSO), 5 days (fraction); higher = more cells survive
NCI-H520 = tested on: NCI-H520
How it was run: (§1)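 Relative viability is defined as nuclei in treated wells over nuclei in vehicle wells. Duplicate plates were run and medians reported. Lung cancer cell lines in 1536-well plates were dosed by pin tool one day after seeding, with one drug or with a fixed anchor-drug dose plus five library-drug doses (not always all listed) in √10 steps, and nuclei were counted after 5 days.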

NCI-H358 = tested on: NCI-H358
How it was run: as §1

LCLC-103H = tested on: LCLC-103H
How it was run: as §1

LU99A = tested on: LU99A
How it was run: as §1

HCC-827 = tested on: HCC-827
How it was run: as §1

NCI-H1793 = tested on: NCI-H1793
How it was run: as §1

SK-LU-1 = tested on: SK-LU-1
How it was run: as §1

CAL-12T = tested on: CAL-12T
How it was run: as §1

NCI-H2347 = tested on: NCI-H2347
How it was run: as §1

HCC-44 = tested on: HCC-44
How it was run: as §1

RERF-LC-KJ = tested on: RERF-LC-KJ
How it was run: as §1

NCI-H322M = tested on: NCI-H322M
How it was run: as §1

NCI-H1755 = tested on: NCI-H1755
How it was run: as §1

NCI-H2126 = tested on: NCI-H2126
How it was run: as §1

ChaGo-K-1 = tested on: ChaGo-K-1
How it was run: as §1

NCI-H1666 = tested on: NCI-H1666
How it was run: as §1

NCI-H1944 = tested on: NCI-H1944
How it was run: as §1

NCI-H3122 = tested on: NCI-H3122
How it was run: as §1

NCI-H1395 = tested on: NCI-H1395
How it was run: as §1

LXF-289 = tested on: LXF-289
How it was run: as §1

NCI-H1792 = tested on: NCI-H1792
How it was run: as §1

Work on `CN1CCN(CCOc2cc(OC3CCOCC3)c3c(Nc4c(Cl)ccc5c4OCO5)ncnc3c2)CC1` [Saracatinib] + Nc1nc2[nH]cc(CCc3ccc(C(=O)N[C@@H](CCC(=O)O)C(=O)O)cc3)c2c(=O)[nH]1 [Pemetrexed] (partner 0.2 µM) yielded a relative viability (NCI-H520; first compound 0.02 µM) of 0.625, a relative viability (NCI-H520; first compound 0.2 µM) of 0.508 and a relative viability (NCI-H520; first compound 0.6325 µM) of 0.474. It also gave a relative viability (NCI-H520; first compound 2 µM) of 0.337, a relative viability (NCI-H358; first compound 0.02 µM) of 0.193 and a relative viability (NCI-H358; first compound 0.2 µM) of 0.166. For the same compound, the relative viability (NCI-H358; first compound 0.6325 µM) was 0.156, the relative viability (NCI-H358; first compound 2 µM) was 0.151 and the relative viability (LCLC-103H; first compound 0.02 µM) was 0.444. It also gave a relative viability (LCLC-103H; first compound 0.2 µM) of 0.329, a relative viability (LCLC-103H; first compound 0.6325 µM) of 0.451 and a relative viability (LCLC-103H; first compound 2 µM) of 0.48. It also gave a relative viability (LU99A; first compound 0.02 µM) of 0.205, a relative viability (LU99A; first compound 0.2 µM) of 0.214 and a relative viability (LU99A; first compound 0.6325 µM) of 0.173. It also gave a relative viability (LU99A; first compound 2 µM) of 0.165, a relative viability (HCC-827; first compound 0.02 µM) of 0.286 and a relative viability (HCC-827; first compound 0.2 µM) of 0.158. The relative viability (HCC-827; first compound 0.6325 µM) was 0.189, the relative viability (HCC-827; first compound 2 µM) was 0.168 and the relative viability (NCI-H1793; first compound 0.02 µM) was 0.947. It also gave a relative viability (NCI-H1793; first compound 0.2 µM) of 0.766, a relative viability (NCI-H1793; first compound 0.6325 µM) of 0.743 and a relative viability (NCI-H1793; first compound 2 µM) of 0.568. It also gave a relative viability (SK-LU-1; first compound 0.02 µM) of 0.918, a relative viability (SK-LU-1; first compound 0.2 µM) of 0.868 and a relative viability (SK-LU-1; first compound 0.6325 µM) of 0.654. The relative viability (SK-LU-1; first compound 2 µM) was 0.557, the relative viability (CAL-12T; first compound 0.02 µM) was 1.27 and the relative viability (CAL-12T; first compound 0.2 µM) was 1.15. It also gave a relative viability (CAL-12T; first compound 0.6325 µM) of 1.33, a relative viability (CAL-12T; first compound 2 µM) of 1.18 and a relative viability (NCI-H2347; first compound 0.02 µM) of 0.435. For the same compound, the relative viability (NCI-H2347; first compound 0.2 µM) was 0.421, the relative viability (NCI-H2347; first compound 0.6325 µM) was 0.464 and the relative viability (NCI-H2347; first compound 2 µM) was 0.429. The relative viability (HCC-44; first compound 0.02 µM) was 0.645, the relative viability (HCC-44; first compound 0.2 µM) was 0.607 and the relative viability (HCC-44; first compound 0.6325 µM) was 0.618. For the same compound, the relative viability (HCC-44; first compound 2 µM) was 0.667, the relative viability (RERF-LC-KJ; first compound 0.02 µM) was 0.477 and the relative viability (RERF-LC-KJ; first compound 0.2 µM) was 0.463. It also gave a relative viability (RERF-LC-KJ; first compound 0.6325 µM) of 0.47, a relative viability (RERF-LC-KJ; first compound 2 µM) of 0.441 and a relative viability (NCI-H322M; first compound 0.02 µM) of 0.574. It also gave a relative viability (NCI-H322M; first compound 0.2 µM) of 0.55, a relative viability (NCI-H322M; first compound 0.6325 µM) of 0.505 and a relative viability (NCI-H322M; first compound 2 µM) of 0.32. It also gave a relative viability (NCI-H1755; first compound 0.02 µM) of 0.465, a relative viability (NCI-H1755; first compound 0.2 µM) of 0.409 and a relative viability (NCI-H1755; first compound 0.6325 µM) of 0.424. The relative viability (NCI-H1755; first compound 2 µM) was 0.394, the relative viability (NCI-H2126; first compound 0.02 µM) was 0.772 and the relative viability (NCI-H2126; first compound 0.2 µM) was 0.664. For the same compound, the relative viability (NCI-H2126; first compound 0.6325 µM) was 0.659, the relative viability (NCI-H2126; first compound 2 µM) was 0.558 and the relative viability (ChaGo-K-1; first compound 0.02 µM) was 0.28. For the same compound, the relative viability (ChaGo-K-1; first compound 0.2 µM) was 0.254, the relative viability (ChaGo-K-1; first compound 0.6325 µM) was 0.26 and the relative viability (ChaGo-K-1; first compound 2 µM) was 0.269. For the same compound, the relative viability (NCI-H1666; first compound 0.02 µM) was 0.877, the relative viability (NCI-H1666; first compound 0.2 µM) was 0.508 and the relative viability (NCI-H1666; first compound 0.6325 µM) was 0.878. The relative viability (NCI-H1666; first compound 2 µM) was 0.841, the relative viability (NCI-H1944; first compound 0.02 µM) was 0.533 and the relative viability (NCI-H1944; first compound 0.2 µM) was 0.663. It also gave a relative viability (NCI-H1944; first compound 0.6325 µM) of 0.626, a relative viability (NCI-H1944; first compound 2 µM) of 0.429 and a relative viability (NCI-H3122; first compound 0.02 µM) of 0.195. It also gave a relative viability (NCI-H3122; first compound 0.2 µM) of 0.169, a relative viability (NCI-H3122; first compound 0.6325 µM) of 0.197 and a relative viability (NCI-H3122; first compound 2 µM) of 0.169. For the same compound, the relative viability (NCI-H1395; first compound 0.02 µM) was 0.896, the relative viability (NCI-H1395; first compound 0.2 µM) was 0.769 and the relative viability (NCI-H1395; first compound 0.6325 µM) was 0.846. The relative viability (NCI-H1395; first compound 2 µM) was 0.612, the relative viability (LXF-289; first compound 0.02 µM) was 0.875 and the relative viability (LXF-289; first compound 0.2 µM) was 0.902. The relative viability (LXF-289; first compound 0.6325 µM) was 0.985, the relative viability (LXF-289; first compound 2 µM) was 1 and the relative viability (NCI-H1792; first compound 0.02 µM) was 1.06. It also gave a relative viability (NCI-H1792; first compound 0.2 µM) of 0.644, a relative viability (NCI-H1792; first compound 0.6325 µM) of 1.12 and a relative viability (NCI-H1792; first compound 2 µM) of 0.788.
